Assay results as given in ChEMBL document CHEMBL5375954, “Discovery and Evaluation of C6-Substituted Pyrazolopyrimidine-Based Bisphosphonate Inhibitors of the Human Geranylgeranyl Pyrophosphate Synthase and Evaluation of Their Antitumor Efficacy in Multiple Myeloma, Pancreatic Ductal Adenocarcinoma, and Colorectal Cancer” (J Med Chem, 2023).
Activity calls are given as the source filed them. The calls are words filed in the database; no cut-off is given here.

Columns and labels:
RPMI-8226 [1] = experiment: cells; details: Homo sapiens, RPMI-8226, 72 h
[2] = biological target: T1, Geranylgeranyl pyrophosphate synthase (Homo sapiens, UniProt O95749); experiment: Inhibition of N-terminal His6 tagged human GGPPS expressed in Escherichia coli BL21(DE3) cells in presence of FPP and [14C]IPP by scintillation counting analysis
T1 sequence (O95749 whole entry): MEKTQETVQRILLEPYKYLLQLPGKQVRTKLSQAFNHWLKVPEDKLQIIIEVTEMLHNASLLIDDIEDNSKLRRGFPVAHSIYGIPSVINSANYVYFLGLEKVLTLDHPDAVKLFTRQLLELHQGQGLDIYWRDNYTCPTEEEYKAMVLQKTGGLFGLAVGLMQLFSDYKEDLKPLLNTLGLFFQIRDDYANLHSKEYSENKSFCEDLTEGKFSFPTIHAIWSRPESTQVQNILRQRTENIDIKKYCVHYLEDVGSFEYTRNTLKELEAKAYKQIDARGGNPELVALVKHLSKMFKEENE

Mus musculus = species on record: Mus musculus; experiment: Cytotoxicity against KPC mouse pancreatic cancer organoid ccmT4 at 1 uM incubated for 72 hrs by CellTiter-Glo luminescence based analysis; type: functional, tissue-based
KMS-12-PE = experiment: Antiproliferative activity against human KMS-12-PE cells harboring wild type KRAS at 0.1 to 10000 nM incubated for 72 hrs by MTS assay; type: functional, cell-based; details: dose 0.1-10000 nM
JJN-3 = experiment: Antiproliferative activity against human JJN-3 cells harboring wild type KRAS at 0.1 to 10000 nM incubated for 72 hrs by MTS assay; type: functional, cell-based; details: dose 0.1-10000 nM
[3] = Cytotoxicity against Normal human bronchial epithelial cells assessed as inhibition of cell growth at 10 uM incubated for 72 hrs by MTS assay relative to control; type: toxicity, cell-based
[4] = biological target: T2, Ras-related protein Rap-1A (Homo sapiens) (UniProt P62834); experiment: Inhibition of RAP-1A prenylation in human MIA PaCa-2 cells incubated for 48 hrs by Western blot analysis; type: cell-based; details: dose 10-1000 nM
T2 sequence (whole entry): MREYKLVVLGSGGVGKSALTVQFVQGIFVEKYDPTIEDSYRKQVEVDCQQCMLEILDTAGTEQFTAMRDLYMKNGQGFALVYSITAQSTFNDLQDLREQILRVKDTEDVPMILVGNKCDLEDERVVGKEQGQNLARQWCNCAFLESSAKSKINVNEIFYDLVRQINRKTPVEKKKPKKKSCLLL

RPMI-8226 [5] = experiment: Induction of ER stress in human RPMI-8226 cells at 1 uM; type: functional, cell-based
RPMI-8226 [6] = experiment: Antiproliferative activity against human RPMI-8226 cells harboring KRAS G12A mutant at 0.1 to 10000 nM incubated for 72 hrs by MTS assay; type: functional, cell-based; details: dose 0.1-10000 nM
[7] = biological target: T2, Ras-related protein Rap-1A (Homo sapiens); experiment: Inhibition of RAP-1A prenylation in human HCT-116 cells incubated for 48 hrs by Western blot analysis; type: cell-based; details: dose 10-1000 nM
KMS-28PE = experiment: Antiproliferative activity against human KMS-28-PE cells harboring KRAS G12A mutant at 0.1 to 10000 nM incubated for 72 hrs by MTS assay; type: functional, cell-based; details: dose 0.1-10000 nM
[8] = Cytotoxicity against wild type mouse normal ductal organoid [N(10128)] at 1 uM incubated for 72 hrs by CellTiter-Glo luminescence based analysis; type: toxicity, tissue-based
MIA PaCa-2 [9] = experiment: Antiproliferative activity against human MIA PaCa-2 cells assessed as inhibition of cell growth at 1 uM incubated for 72 hrs by MTS assay; type: functional, cell-based
[10] = biological target: T3, Farnesyl pyrophosphate synthase (Homo sapiens) (UniProt P14324); experiment: Inhibition of N-terminally His6-tagged recombinant human FPPS expressed in Escherichia coli BL21(DE3) cells using […] and [14C]IPP as substrate at 1 uM preincubated for 10 mins followed by substrate addition by scintillation counting analysis relative to control
T3 sequence (whole entry): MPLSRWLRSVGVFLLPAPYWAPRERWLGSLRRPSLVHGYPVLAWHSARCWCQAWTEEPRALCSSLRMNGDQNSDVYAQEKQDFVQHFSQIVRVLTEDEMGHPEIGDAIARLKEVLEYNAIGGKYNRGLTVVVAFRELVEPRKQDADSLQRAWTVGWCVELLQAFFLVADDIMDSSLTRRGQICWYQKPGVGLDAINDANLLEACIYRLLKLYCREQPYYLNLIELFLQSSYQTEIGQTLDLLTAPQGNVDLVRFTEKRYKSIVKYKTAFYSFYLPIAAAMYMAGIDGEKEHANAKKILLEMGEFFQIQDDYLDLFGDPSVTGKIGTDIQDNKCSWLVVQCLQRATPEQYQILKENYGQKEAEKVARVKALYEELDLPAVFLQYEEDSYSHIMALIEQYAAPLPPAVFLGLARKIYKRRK

HCT-116 [11] = experiment: Antiproliferative activity against human HCT-116 cells assessed as inhibition of cell growth at 1 uM incubated for 72 hrs by MTS assay; type: functional, cell-based
MIA PaCa-2 [12] = experiment: cells; details: Homo sapiens, MIA PaCa-2, 72 h
HCT-116 [13] = experiment: cells; details: Homo sapiens, HCT-116, 72 h
[14] = Cytotoxicity against human IMR-90 cells assessed as inhibition of cell growth incubated for 72 hrs by MTS assay; type: toxicity, cell-based
[15] = Cytotoxicity against Normal human bronchial epithelial cells assessed as inhibition of cell growth incubated for 72 hrs by MTS assay; type: toxicity, cell-based
[16] = Cytotoxicity against wild type mouse normal ductal organoid [N(10128)] at low nM concentrations incubated for 72 hrs by CellTiter-Glo luminescence based analysis; type: toxicity, tissue-based

Row | EC50 (RPMI-8226 [1]) [nM] | IC50 [2] [nM] | Structure (SMILES) | also measured
1 | > 1000 | 30 | CCn1ncc2c(NC(P(=O)(O)O)P(=O)(O)O)nc(-c3cccc(C(=O)Nc4ccc(C(F)(F)F)cc4)c3)nc21 | –
2 | – | – | COc1ccc(NC(=O)c2cccc(-c3nc(NC(P(=O)(O)O)P(=O)(O)O)c4ccsc4n3)c2)cc1F | Activity (Mus musculus): Active; Activity (KMS-12-PE): Active; Activity (JJN-3): Active; inhibition at 72 h, 10 µM [3]: ~30%; inhibition [4]: Dose-Dependent Effect; Activity (RPMI-8226 [5]): Active; Activity (RPMI-8226 [6]): Active; inhibition [7]: Dose-Dependent Effect; Activity (KMS-28PE): Active; Activity [8]: Non-Toxic
3 | 160 | 12 | O=C(Nc1ccc(C(F)(F)F)cc1)c1cccc(-c2nc(NC(P(=O)(O)O)P(=O)(O)O)c3ccsc3n2)c1 | –
4 | 510 | 13 | Cn1cnc2c(NC(P(=O)(O)O)P(=O)(O)O)nc(-c3cccc(C(=O)Nc4ccc(C(F)(F)F)cc4)c3)nc21 | –
5 | 640 | 25 | COc1ccc(NC(=O)c2cccc(-c3nc(NC(P(=O)(O)O)P(=O)(O)O)c4cn[nH]c4n3)c2)cc1F | Activity (MIA PaCa-2 [9]): inactive; inhibition [10]: 10%; Activity (HCT-116 [11]): inactive
6 | > 1000 | 20 | CC(C)n1ncc2c(NC(P(=O)(O)O)P(=O)(O)O)nc(-c3cccc(C(=O)Nc4ccc(C(F)(F)F)cc4)c3)nc21 | –
7 | – | – | COc1cccc2c1C(=O)c1c(O)c3c(c(O)c1C2=O)C[C@@](O)(C(=O)CO)C[C@@H]3O[C@H]1C[C@H](N)[C@H](O)[C@H](C)O1 [DOXORUBICIN] | Activity (Mus musculus): Active; EC50 (MIA PaCa-2 [12]): 130 nM; EC50 (HCT-116 [13]): 41 nM; EC50 at 72 h [14]: 360 nM; EC50 at 72 h [15]: 450 nM; Activity [8]: Toxic
8 | > 1000 | 41 | COc1ccc(NC(=O)c2cccc(-c3nc(NC(P(=O)(O)O)P(=O)(O)O)c4cnn(C(C)C)c4n3)c2)cc1F | Activity (MIA PaCa-2 [9]): inactive; inhibition [10]: < 10%; Activity (HCT-116 [11]): inactive
9 | 170 | 58 | COc1ccc(NC(=O)c2cccc(-c3nc(NC(P(=O)(O)O)P(=O)(O)O)c4ncn(C)c4n3)c2)cc1F | Activity (MIA PaCa-2 [9]): inactive; inhibition [10]: < 10%; Activity (HCT-116 [11]): inactive
10 | 120 | 18 | O=C(Nc1ccc(F)cc1)c1cccc(-c2nc(NC(P(=O)(O)O)P(=O)(O)O)c3ccsc3n2)c1 | –
11 | > 1000 | 8 | O=C(Nc1ccc(C(F)(F)F)cc1)c1cccc(-c2nc(NC(P(=O)(O)O)P(=O)(O)O)c3cn[nH]c3n2)c1 | –
12 | 150 | 48 | COc1ccc(NC(=O)c2cccc(-c3nc(NC(P(=O)(O)O)P(=O)(O)O)c4cnn(C)c4n3)c2)cc1F | Activity (MIA PaCa-2 [9]): inactive; inhibition [10]: < 10%; Activity (HCT-116 [11]): inactive
13 | > 1000 | 30 | CC(C)n1ncc2c(NC(P(=O)(O)O)P(=O)(O)O)nc(-c3cccc(C(=O)Nc4ccc(F)cc4)c3)nc21 | –
14 | 670 | 41 | Cn1cnc2c(NC(P(=O)(O)O)P(=O)(O)O)nc(-c3cccc(C(=O)Nc4ccc(F)cc4)c3)nc21 | –
15 | 440 | 31 | Cn1ncc2c(NC(P(=O)(O)O)P(=O)(O)O)nc(-c3cccc(C(=O)Nc4ccc(F)cc4)c3)nc21 | –
16 | 552 | 67 | CCn1cc2c(NC(P(=O)(O)O)P(=O)(O)O)nc(-c3cccc(C(=O)Nc4ccc(OC)c(F)c4)c3)nc2n1 | –
17 | 520 | 56 | COc1ccc(NC(=O)c2cccc(-c3nc(NC(P(=O)(O)O)P(=O)(O)O)c4cn(C)nc4n3)c2)cc1F | inhibition [10]: 15%
18 | – | – | Nc1ccn([C@@H]2O[C@H](CO)[C@@H](O)C2(F)F)c(=O)n1 [GEMCITABINE] | EC50 (MIA PaCa-2 [12]): 2 nM; EC50 (HCT-116 [13]): 4 nM; Activity [16]: Toxic
19 | > 1000 | 40 | CCn1ncc2c(NC(P(=O)(O)O)P(=O)(O)O)nc(-c3cccc(C(=O)Nc4ccc(OC)c(F)c4)c3)nc21 | Activity (MIA PaCa-2 [9]): inactive; inhibition [10]: < 10%; Activity (HCT-116 [11]): inactive
20 | > 1000 | 39 | O=C(Nc1ccc(F)cc1)c1cccc(-c2nc(NC(P(=O)(O)O)P(=O)(O)O)c3cn[nH]c3n2)c1 | –
21 | > 1000 | 29 | CCn1ncc2c(NC(P(=O)(O)O)P(=O)(O)O)nc(-c3cccc(C(=O)Nc4ccc(F)cc4)c3)nc21 | –
